Results published in patent publication US5885834A, “Antisense oligodeoxynucleotide against phosphodiesterase” (priority 1997, dated 1999).
“Also recorded” adds a separate entry of the source.

Tests used:
Type in all cases: cell-based, human
[1] = tested on: PHA-stimulated HPBL; experiment: TUNEL assay of apoptosis, flow cytometry, PHA-stimulated HPBL; conditions: 10 μg/ml PHA-P; 30 μM ODN; 3 days
Text: Nevertheless, the effects of AS ODNs on HPBL can still be tested by quantifying and comparing the percentage of cells undergoing apoptosis in the presence and absence of the AS ODN. Apoptosis detected by examining endonuclease-digested DNA, commonly referred to as the DNA laddering technique, has been employed and the results therefrom are set forth in FIG. 5. However, we prefer to use a TUNEL assay, an acronym for terminal deoxynucleotidyl transferase (TdT)-mediated dUTP nick end labeling, which more readily allows quantitation of the percentage of cells undergoing apoptosis. The principle of the TUNEL assay is that endonuclease digestion during apoptosis results in the formation of 3'-OH ends in the digested DNA. The digested DNA in the apoptotic cells can then be labeled with fluorescein by catalytically incorporating fluorescein-12-dUTP at the 3'-OH ends using the TdT enzyme. Fluorescence can then be quantitated by flow cytometry, using a fluorescence activated cell sorter (FACS), which would give a measure of the number of cells undergoing apoptosis. An example of the appearance of a population of fluorescein labeled apoptotic cells, as evidenced by flow cytometry, following TUNEL assay labeling of the cells, is shown in FIGS. 6A-C. […]

[2] = tested on: isolated, quiescent HPBL; experiment: TUNEL assay of apoptosis, flow cytometry, quiescent HPBL; conditions: isolated, quiescent HPBL in culture, ODN added
Text: Nevertheless, the effects of AS ODNs on HPBL can still be tested by quantifying and comparing the percentage of cells undergoing apoptosis in the presence and absence of the AS ODN. Apoptosis detected by examining endonuclease-digested DNA, commonly referred to as the DNA laddering technique, has been employed and the results therefrom are set forth in FIG. 5. However, we prefer to use a TUNEL assay, an acronym for terminal deoxynucleotidyl transferase (TdT)-mediated dUTP nick end labeling, which more readily allows quantitation of the percentage of cells undergoing apoptosis. The principle of the TUNEL assay is that endonuclease digestion during apoptosis results in the formation of 3'-OH ends in the digested DNA. The digested DNA in the apoptotic cells can then be labeled with fluorescein by catalytically incorporating fluorescein-12-dUTP at the 3'-OH ends using the TdT enzyme. Fluorescence can then be quantitated by flow cytometry, using a fluorescence activated cell sorter (FACS), which would give a measure of the number of cells undergoing apoptosis. An example of the appearance of a population of fluorescein labeled apoptotic cells, as evidenced by flow cytometry, following TUNEL assay labeling of the cells, is shown in FIGS. 6A-C. Cells were then cultured for 3 days with 10 μg/ml PHA-P (Sigma), in the absence of any ODN (FIG. 6A), in the presence of 30 μM NS ODN (FIG. 6B), or in the presence of 30 μM AS ODN (FIG. 6C). Cells were then collected by centrifugation and fluorescein labeled by the TUNEL assay using the Promega Apoptosis Detection System. Flow cytometry was performed on a Beckton Dickinson FACScan by the FACS facility.
The procedure for analyzing apoptosis by the TUNEL method uses either an In Situ Cell Death Kit, Fluorescein from Boehringer Mannheim or an Apoptosis Detection System, Fluorescein from Promega and follows the protocols of the manufacturers. The data in FIGS. 6 and 7 was obtained using the manufacturer's protocol for the Apoptosis Detection System, Fluorescein from Promega. […]

[3] = tested on: RPMI 8392 cells; experiment: Apoptosis by endonuclease-digested DNA (DNA laddering) on agarose gels; conditions: RPMI 8392 cells
Method: The preferred method for testing the ability of AS ODN to induce apoptosis as determined by detection of endonuclease digested DNA on agarose gels employs the following sequence:
(2) Cells are grown to ≈10^6 /ml, collected by centrifugation for 5 min. at 300×g (1000 rpm in an IEC Model K centrifuge), resuspended in growth medium to 10^6 cells/ml, and placed in a 24 well tissue culture plate at 1 ml/well. The cell volumes are kept to a minimum (i.e., -1 ml), in order to reduce the amount of ODN needed. The fetal bovine serum used in the growth medium for this step is heat-inactivated at 65° C. for 1 hr. to minimize serum nuclease activity.
(4) Cells are then incubated for varying times, usually 1-3 days, following which the DNA is isolated.
The supernatant is aspirated down to ≈50 μl of volume and the cell pellet is resuspended in this remaining small volume.
(6) About 400 μl of cold cell lysis buffer (50 mM Tris-HCl, pH 7.5, 10 mM EDTA, 1% Triton X-100) is then added.
(9) The upper, aqueous phase is transferred to a fresh microfuge tube and 250 μl of phenol and 250 μl of chloroform are added, the mixture gently vortexed for 5 sec., and centrifuged at 16,650×g for 5 min.
(10) The upper, aqueous phase is again transferred to a fresh microfuge tube and 500 μl of chloroform is added, followed by gentle vortexing and centrifugation at 16,650×g for 3 min.
(11) The upper, aqueous phase is again transferred to a fresh microfuge tube, 3M sodium acetate (pH 5.2) is added to a final concentration of 0.3M, and 2.5 volumes of ice cold 100% ethanol is added. The solution is left overnight at -20° C. to precipitate the DNA.
(12) The DNA is collected by centrifugation at 16,650×g for 15 min., the supernatant decanted, and the pellet air dried for ≈30-60 min. at room temperature. The DNA pellet is then dissolved in 50 μl of pH 8.0 TE buffer at room temperature overnight.
(13) One μl of a 4 mg/ml solution of DNase-free RNase A is then added to the DNA and incubation is carried out at 37° C. for 30 min. This step is necessary to prevent contaminating RNA from obscuring the gel.
(14) Thirty μl of DNA solution is then mixed with 6 μl of 6× loading buffer and run on a 2% agarose gel, containing 0.5 μg/ml ethidium bromide, in 0.5× TBE buffer (45 mM Tris-borate, 1 mM EDTA, pH 8.0) at ≈50 V for ≈1.5 hr. The 6× loading buffer used is 0.25% xylene cyanol and 30% glycerol. The use of bromophenol blue is omitted for this analysis because it tends to obscure the visualization of the DNA ladder pattern.
(15) The gel is then visualized and photographed under UV light.
The effect of pharmacological inhibition of each of these PDE activities on induction of apoptosis in RPMI 8392 cells was tested, using the appearance of oligonucleosome length fragments of endonuclease digested DNA as a measure of apoptosis.
Markers (lane 1 in both gels) are 1 kb DNA ladder size markers from GIBCO/BRL.
Cells (10^6) were collected by centrifugation at 670×g for 5 min. The cell pellets were rinsed once with 0.2M dibasic sodium phosphate and lysed in 300 μl of lysis buffer (50 mM Tris/HCl pH 7.5, 10 mM EDTA, 1% V/V Triton X-100) for 20 min on ice. Proteinase K was added to 0.5 mg/ml and DNase-free RNase was added to 50 μg/ml and the extract incubated at 37° C. for 1 hr. DNA was then extracted in phenol/chloroform (1:1) and chloroform (1:1) and precipitated in 2.5 volumes of ethanol. The extracted DNA was electrophoresed on 2% agarose gels, the gels stained with 0.5 μg/ml ethidium bromide and photographed under UV light.
Experiments were conducted to determine if inhibition of the expression of the gene for PDE1B1 could induce apoptosis.

Row | Substance | Apoptosis in PHA-stimulated HPBL (TUNEL) [1] | Rate of formation of apoptotic HPBL cells (TUNEL) [2] | Induction of apoptosis (DNA fragmentation) ([3]; 10 μM ODN, 3 days) | Induction of apoptosis (DNA fragmentation) ([3]; 30 μM ODN, 2 days (48 hr)) | Induction of apoptosis (DNA fragmentation) ([3]; 30 μM ODN, 3 days) | Induction of apoptosis (DNA fragmentation) ([3]; any concentration tested (0.3-30 μM), 1, 2 and 3 days)
1 | 5'-GGACAGCTCCATGCTCAG-3' (phosphorothioate, further chemistry not given here) [AS ODN, 18 nt phosphorothioate antisense oligodeoxynucleotide targeted against the translation initiation region of PDE1B1] | show the appearance of a population of highly fluorescein labeled cells; also recorded: induced apoptosis | unchanged | induced apoptosis | clearly induced apoptosis | induced apoptosis | 
2 | 5'-TACGTGAGGCACCTACGC-3' (phosphorothioate, further chemistry not given here) [NS ODN, control phosphorothioate nonsense ODN, same base composition as the AS ODN in random, scrambled order] | do not show the appearance of this population; also recorded: no effect | no different from control |  | did not |  | no effect
